The text below walks through data of ChEMBL document CHEMBL5291721, “A preclinical secondary pharmacology resource illuminates target-adverse drug reaction associations of marketed drugs” (Nat Commun, 2023).

Where only a bound is given, the exact number is not on record here.

One experiment addresses Acetylcholinesterase (Homo sapiens, UniProt P22303). The format is functional.
The target of the next experiment is T1, Adenosine receptor A3 (Homo sapiens, UniProt P0DMS8).
T1 sequence (P0DMS8 whole entry): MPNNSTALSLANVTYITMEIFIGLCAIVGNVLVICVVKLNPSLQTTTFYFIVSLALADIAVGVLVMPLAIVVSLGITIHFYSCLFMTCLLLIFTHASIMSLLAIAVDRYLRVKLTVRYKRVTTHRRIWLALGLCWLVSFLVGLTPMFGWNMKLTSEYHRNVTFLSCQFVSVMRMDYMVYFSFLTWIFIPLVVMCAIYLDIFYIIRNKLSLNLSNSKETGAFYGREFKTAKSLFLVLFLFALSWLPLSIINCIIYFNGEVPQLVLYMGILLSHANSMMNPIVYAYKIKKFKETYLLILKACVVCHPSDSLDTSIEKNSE

Experiment [1] deals with T2, Alpha-1A adrenergic receptor (Homo sapiens, UniProt P35348).
T2 sequence (P35348 whole entry): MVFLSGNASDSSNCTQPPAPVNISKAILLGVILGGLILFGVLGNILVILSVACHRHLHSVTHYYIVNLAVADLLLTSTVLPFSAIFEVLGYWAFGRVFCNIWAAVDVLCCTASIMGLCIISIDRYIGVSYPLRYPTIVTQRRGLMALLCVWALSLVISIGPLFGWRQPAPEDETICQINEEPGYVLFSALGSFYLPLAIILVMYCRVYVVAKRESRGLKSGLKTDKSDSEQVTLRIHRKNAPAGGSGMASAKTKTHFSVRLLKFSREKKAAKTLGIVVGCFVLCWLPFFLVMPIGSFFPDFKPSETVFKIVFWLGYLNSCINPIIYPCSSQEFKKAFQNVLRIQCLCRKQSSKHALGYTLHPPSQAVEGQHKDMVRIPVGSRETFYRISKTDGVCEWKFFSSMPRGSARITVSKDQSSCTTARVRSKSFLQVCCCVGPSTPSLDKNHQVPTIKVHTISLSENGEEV
The class given is functional, cell-based.

Another experiment addresses D(1A) dopamine receptor (Homo sapiens, UniProt P21728).
Another experiment deals with Prothrombin (Homo sapiens, UniProt P00734). The class given is functional.
The target in experiment [2] is 5-hydroxytryptamine receptor 2B (Homo sapiens, UniProt P41595). The format is functional, cell-based.
Chain of 5-hydroxytryptamine receptor 2B (P41595 whole entry): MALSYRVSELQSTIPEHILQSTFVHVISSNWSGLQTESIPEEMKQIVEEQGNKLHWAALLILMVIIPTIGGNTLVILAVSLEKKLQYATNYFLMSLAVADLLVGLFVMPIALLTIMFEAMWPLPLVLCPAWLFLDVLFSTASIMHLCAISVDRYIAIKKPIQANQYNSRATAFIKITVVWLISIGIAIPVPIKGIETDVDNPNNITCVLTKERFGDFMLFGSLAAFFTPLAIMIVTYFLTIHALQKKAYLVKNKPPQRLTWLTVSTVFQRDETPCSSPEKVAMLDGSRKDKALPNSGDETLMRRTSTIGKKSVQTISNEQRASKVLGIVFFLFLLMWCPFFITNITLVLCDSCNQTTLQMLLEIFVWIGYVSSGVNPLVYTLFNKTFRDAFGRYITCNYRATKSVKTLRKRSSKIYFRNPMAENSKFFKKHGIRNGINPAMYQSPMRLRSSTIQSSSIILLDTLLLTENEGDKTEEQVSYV
Experiment [3] concerns the target Voltage-gated inwardly rectifying potassium channel KCNH2 (Homo sapiens, UniProt Q12809). The format is functional. As to conditions: read-out: AC50.
Experiment [4] addresses T3, Amine oxidase [flavin-containing] A (Homo sapiens, UniProt P21397).
T3 sequence (P21397 whole entry): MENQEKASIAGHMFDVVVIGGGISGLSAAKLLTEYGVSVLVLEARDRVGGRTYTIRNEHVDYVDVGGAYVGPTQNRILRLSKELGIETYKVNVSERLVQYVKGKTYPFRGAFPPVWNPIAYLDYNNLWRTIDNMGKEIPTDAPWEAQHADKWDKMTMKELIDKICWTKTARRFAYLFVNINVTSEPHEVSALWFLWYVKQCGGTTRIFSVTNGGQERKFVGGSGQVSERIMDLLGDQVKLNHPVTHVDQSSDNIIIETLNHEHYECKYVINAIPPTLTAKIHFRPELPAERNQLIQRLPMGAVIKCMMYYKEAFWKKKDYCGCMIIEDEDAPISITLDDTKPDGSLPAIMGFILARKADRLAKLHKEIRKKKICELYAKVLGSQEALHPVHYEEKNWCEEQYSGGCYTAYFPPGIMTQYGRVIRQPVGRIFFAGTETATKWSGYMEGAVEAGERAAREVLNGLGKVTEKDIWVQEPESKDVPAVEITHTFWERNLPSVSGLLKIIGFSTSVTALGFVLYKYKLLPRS
The format is functional.

For the next experiment, the target named is Mu-type opioid receptor (Homo sapiens, UniProt P35372).
Chain of Mu-type opioid receptor (P35372 whole entry): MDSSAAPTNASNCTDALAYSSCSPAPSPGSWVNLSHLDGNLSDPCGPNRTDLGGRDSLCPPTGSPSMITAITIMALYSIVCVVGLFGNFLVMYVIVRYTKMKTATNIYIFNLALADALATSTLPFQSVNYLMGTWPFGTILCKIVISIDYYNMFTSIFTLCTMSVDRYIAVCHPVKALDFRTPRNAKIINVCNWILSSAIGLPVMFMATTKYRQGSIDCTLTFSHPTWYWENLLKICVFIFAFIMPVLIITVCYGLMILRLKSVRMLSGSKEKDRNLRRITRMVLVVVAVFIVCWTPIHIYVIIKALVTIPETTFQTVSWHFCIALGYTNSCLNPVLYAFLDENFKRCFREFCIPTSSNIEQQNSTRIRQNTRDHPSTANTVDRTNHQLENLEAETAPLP
In experiment [5] the target is 3',5'-cyclic-AMP phosphodiesterase 4A (Homo sapiens, UniProt P27815). The class given is functional.
Chain of 3',5'-cyclic-AMP phosphodiesterase 4A (P27815 whole entry): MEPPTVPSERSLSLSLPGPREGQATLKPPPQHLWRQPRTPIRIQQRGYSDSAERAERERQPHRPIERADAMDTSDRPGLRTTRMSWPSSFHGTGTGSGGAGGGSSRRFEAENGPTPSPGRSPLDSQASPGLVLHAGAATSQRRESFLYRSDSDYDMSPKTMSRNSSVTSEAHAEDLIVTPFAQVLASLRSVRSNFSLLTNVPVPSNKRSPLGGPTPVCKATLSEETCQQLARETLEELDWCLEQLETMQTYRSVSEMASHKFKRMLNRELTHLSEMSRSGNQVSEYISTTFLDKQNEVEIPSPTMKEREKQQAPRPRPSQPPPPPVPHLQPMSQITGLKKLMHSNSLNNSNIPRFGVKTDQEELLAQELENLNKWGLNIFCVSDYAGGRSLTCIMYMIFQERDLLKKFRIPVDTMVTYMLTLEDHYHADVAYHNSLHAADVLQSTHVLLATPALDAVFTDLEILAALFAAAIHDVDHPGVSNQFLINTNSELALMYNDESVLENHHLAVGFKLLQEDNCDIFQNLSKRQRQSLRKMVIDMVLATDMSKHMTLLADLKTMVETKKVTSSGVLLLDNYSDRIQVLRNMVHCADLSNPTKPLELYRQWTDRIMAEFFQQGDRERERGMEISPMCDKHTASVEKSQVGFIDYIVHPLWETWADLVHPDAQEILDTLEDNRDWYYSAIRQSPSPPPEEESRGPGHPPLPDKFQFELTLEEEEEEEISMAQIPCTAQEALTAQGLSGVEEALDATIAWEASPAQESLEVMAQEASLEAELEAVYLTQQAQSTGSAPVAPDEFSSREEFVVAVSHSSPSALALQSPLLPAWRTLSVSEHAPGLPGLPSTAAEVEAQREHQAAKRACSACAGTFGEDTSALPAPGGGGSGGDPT
The target of experiment [6] is Prostaglandin G/H synthase 1 (Homo sapiens, UniProt P23219). The format is functional.
In experiment [7] the target is Sodium-dependent noradrenaline transporter (Homo sapiens, UniProt P23975).
Chain of Sodium-dependent noradrenaline transporter (P23975 whole entry): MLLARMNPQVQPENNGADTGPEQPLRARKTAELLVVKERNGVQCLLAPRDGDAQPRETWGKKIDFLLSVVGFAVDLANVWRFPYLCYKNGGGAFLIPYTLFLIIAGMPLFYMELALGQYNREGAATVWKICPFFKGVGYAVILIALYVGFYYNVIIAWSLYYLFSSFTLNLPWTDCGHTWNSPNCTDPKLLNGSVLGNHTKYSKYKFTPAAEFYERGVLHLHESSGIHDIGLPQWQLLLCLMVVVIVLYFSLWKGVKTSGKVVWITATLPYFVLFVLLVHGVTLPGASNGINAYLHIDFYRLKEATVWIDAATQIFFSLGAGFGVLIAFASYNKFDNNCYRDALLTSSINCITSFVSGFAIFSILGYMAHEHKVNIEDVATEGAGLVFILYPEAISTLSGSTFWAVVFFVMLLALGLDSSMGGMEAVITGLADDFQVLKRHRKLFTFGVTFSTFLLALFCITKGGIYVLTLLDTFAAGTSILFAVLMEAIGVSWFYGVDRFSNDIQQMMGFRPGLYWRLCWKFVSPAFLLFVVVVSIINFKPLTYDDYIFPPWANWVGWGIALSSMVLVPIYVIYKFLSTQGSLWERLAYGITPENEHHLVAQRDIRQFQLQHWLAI
For experiment [8], the target named is Sodium-dependent dopamine transporter (Homo sapiens, UniProt Q01959).
In experiment [9] the target is Sodium-dependent serotonin transporter (Homo sapiens, UniProt P31645).
Experiment [10] has as its target T4, Thromboxane A2 receptor (Homo sapiens, UniProt P21731).
T4 sequence (P21731 whole entry): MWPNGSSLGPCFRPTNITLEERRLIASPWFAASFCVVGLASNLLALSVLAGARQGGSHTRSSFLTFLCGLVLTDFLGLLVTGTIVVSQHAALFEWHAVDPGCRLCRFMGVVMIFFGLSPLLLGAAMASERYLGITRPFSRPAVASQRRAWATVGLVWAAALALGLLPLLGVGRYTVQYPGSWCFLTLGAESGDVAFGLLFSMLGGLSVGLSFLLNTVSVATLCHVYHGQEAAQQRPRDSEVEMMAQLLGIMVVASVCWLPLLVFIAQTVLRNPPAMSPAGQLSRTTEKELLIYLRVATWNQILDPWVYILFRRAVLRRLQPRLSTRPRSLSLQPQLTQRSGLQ
The format is functional, cell-based.

The target of experiment [11] is T4, Thromboxane A2 receptor. The class given is functional, cell-based. This is another data set of the same source.
Note: assay procedure not described here.

Chain of D(1A) dopamine receptor (P21728 whole entry): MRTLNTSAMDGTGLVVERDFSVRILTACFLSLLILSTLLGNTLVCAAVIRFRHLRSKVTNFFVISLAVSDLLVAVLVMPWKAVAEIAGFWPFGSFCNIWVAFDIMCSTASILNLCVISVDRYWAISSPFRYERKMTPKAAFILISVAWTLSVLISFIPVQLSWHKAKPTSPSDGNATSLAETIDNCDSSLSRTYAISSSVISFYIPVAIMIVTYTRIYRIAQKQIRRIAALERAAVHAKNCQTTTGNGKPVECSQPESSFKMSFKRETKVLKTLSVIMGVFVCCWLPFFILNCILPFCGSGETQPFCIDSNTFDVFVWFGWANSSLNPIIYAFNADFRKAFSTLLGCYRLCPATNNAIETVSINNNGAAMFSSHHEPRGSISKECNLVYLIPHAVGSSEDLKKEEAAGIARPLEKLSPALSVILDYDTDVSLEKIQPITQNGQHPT
Chain of Voltage-gated inwardly rectifying potassium channel KCNH2 (Q12809 whole entry): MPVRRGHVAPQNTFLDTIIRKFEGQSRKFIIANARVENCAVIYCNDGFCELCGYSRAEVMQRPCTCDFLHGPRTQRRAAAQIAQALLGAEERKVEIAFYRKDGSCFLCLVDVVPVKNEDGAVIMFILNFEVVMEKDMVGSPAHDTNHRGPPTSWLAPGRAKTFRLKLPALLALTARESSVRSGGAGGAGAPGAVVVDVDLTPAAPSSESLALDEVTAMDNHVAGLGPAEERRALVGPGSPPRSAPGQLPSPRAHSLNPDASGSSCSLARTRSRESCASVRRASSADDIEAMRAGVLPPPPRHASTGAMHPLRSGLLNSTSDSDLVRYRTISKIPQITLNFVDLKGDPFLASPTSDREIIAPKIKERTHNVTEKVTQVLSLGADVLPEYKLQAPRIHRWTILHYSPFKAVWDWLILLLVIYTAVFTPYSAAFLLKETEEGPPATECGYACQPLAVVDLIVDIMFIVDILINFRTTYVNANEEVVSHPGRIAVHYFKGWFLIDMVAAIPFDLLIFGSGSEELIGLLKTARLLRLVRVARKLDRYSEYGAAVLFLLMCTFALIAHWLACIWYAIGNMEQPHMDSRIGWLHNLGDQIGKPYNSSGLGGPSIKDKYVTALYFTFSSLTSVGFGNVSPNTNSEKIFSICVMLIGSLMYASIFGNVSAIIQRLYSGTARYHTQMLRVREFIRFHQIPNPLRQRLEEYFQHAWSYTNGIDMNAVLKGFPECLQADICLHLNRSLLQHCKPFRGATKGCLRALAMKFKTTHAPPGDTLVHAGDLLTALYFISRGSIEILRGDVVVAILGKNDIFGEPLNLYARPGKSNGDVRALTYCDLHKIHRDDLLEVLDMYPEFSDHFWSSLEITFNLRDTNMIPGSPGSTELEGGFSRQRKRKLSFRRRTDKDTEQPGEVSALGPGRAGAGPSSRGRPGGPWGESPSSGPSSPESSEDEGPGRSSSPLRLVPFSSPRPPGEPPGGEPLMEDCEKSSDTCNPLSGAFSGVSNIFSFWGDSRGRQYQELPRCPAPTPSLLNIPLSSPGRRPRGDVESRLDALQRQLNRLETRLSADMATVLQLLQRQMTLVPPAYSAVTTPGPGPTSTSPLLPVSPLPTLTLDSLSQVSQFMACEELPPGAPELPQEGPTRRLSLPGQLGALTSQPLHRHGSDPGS
Chain of Acetylcholinesterase (P22303 whole entry): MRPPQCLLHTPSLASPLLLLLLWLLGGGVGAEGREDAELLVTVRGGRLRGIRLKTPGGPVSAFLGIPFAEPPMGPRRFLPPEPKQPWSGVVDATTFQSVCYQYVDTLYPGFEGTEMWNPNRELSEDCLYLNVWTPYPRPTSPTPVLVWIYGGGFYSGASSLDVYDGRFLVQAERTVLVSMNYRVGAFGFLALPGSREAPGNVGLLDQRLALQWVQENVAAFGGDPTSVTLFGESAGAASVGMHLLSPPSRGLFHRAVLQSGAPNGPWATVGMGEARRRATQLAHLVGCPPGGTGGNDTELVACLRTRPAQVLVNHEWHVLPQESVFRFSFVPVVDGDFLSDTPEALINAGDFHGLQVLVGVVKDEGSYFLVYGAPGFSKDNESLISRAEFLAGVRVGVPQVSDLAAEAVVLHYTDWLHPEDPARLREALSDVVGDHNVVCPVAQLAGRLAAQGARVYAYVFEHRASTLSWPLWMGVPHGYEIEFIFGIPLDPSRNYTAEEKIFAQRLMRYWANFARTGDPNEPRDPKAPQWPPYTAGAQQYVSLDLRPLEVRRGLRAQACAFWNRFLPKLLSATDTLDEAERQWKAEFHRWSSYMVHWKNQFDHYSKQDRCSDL

Turning to `O=C(O)c1cccc(-c2noc(-c3ccccc3F)n2)c1`, the AC50 (on Acetylcholinesterase; on Adenosine receptor A3; in experiment [1]; on D(1A) dopamine receptor; on Prothrombin; in [2]) was greater than 30 µM throughout. Also, the AC50 (in experiment [3]; in experiment [4]; at Mu-type opioid receptor; in experiment [5]; in experiment [6]; in [7]) was greater than 30 µM throughout. Moreover, the half-maximal activity concentration (AC50) (in experiment [8]; in experiment [9]; on Thromboxane A2 receptor [10]; at Thromboxane A2 receptor [11]) was greater than 30 µM in each case.

Regarding `Nc1ccc(C(=O)O)cc1` [AMINOBENZOIC ACID], the AC50 (on Acetylcholinesterase; at Adenosine receptor A3; in experiment [1]; at D(1A) dopamine receptor; on Prothrombin; in [2]) was greater than 30 µM each time. The AC50 in [3] is greater than 30 µM; in [4] it was greater than 30 µM; on Mu-type opioid receptor it was greater than 30 µM; in [5] it was greater than 30 µM; in experiment [6], 2.18 µM; in experiment [7], greater than 30 µM. Further, the AC50 (in experiment [8]; in experiment [9]; at Thromboxane A2 receptor [10]; on Thromboxane A2 receptor [11]) was greater than 30 µM each time.

Regarding `CCCC1C(=O)N2C(N(C)C)=Nc3ccc(C)cc3N2C1=O` (stereo not drawn) [APAZONE], the concentration at half-maximal activity (AC50) on Acetylcholinesterase was greater than 30 µM; on Adenosine receptor A3, 3.84 µM; in [1] it was greater than 30 µM; on D(1A) dopamine receptor it was greater than 30 µM; at Prothrombin, greater than 30 µM; in experiment [2] it was greater than 30 µM. For the same molecule, the AC50 in [3] was greater than 30 µM; in [4] it was greater than 30 µM; at Mu-type opioid receptor, greater than 30 µM; in experiment [5], greater than 30 µM; in experiment [6], 6.16 µM; in [7], greater than 30 µM. For the same molecule, the concentration at half-maximal activity (AC50) (in [8]; in [9]; on Thromboxane A2 receptor [10]; on Thromboxane A2 receptor [11]) was greater than 30 µM each time.

`O=C1CN=C(c2ccccc2)c2c(sc3c2CCCC3)N1` [BENTAZEPAM]: the AC50 on Acetylcholinesterase was greater than 30 µM; on Adenosine receptor A3, 14.3 µM; in [1] it was 12.4 µM; on D(1A) dopamine receptor, greater than 30 µM; on Prothrombin, greater than 30 µM; in [2] it was greater than 30 µM. Moreover, the AC50 is greater than 30 µM in experiment [3]; greater than 30 µM in [4]; greater than 30 µM at Mu-type opioid receptor; 15.7 µM in [5]; greater than 1 µM in experiment [6]; greater than 30 µM in experiment [7]. Also, the AC50 (in experiment [8]; in [9]; at Thromboxane A2 receptor [10]; at Thromboxane A2 receptor [11]) was greater than 30 µM in each case.

With `O=C(O)CCCN1CCC(O[C@@H](c2ccc(Cl)cc2)c2ccccn2)CC1` [BEPOTASTINE], the AC50 (on Acetylcholinesterase; on Adenosine receptor A3; in experiment [1]; on D(1A) dopamine receptor; at Prothrombin; in [2]) was greater than 30 µM each time. Further, the AC50 (in experiment [3]; in experiment [4]; on Mu-type opioid receptor; in [5]; in experiment [6]; in [7]) was greater than 30 µM each time. For the same molecule, the AC50 (in experiment [8]; in experiment [9]; on Thromboxane A2 receptor [10]; on Thromboxane A2 receptor [11]) was greater than 30 µM throughout.

Regarding `CCCCN(CCCC)CCCOC(=O)c1ccc(N)cc1` [BUTACAINE], the half-maximal activity concentration (AC50) (at Acetylcholinesterase; at Adenosine receptor A3; in experiment [1]; on D(1A) dopamine receptor; at Prothrombin; in [2]) was greater than 30 µM each time. In addition, the AC50 was 5.4 µM in [3]; greater than 30 µM in experiment [4]; greater than 30 µM on Mu-type opioid receptor; greater than 30 µM in [5]; greater than 30 µM in experiment [6]; greater than 30 µM in experiment [7]. Also, the concentration at half-maximal activity (AC50) in [8] was 2 µM; in [9], greater than 30 µM; at Thromboxane A2 receptor [10], greater than 30 µM; on Thromboxane A2 receptor [11], greater than 30 µM.

With `CCCC[N+]1(C)[C@@H]2C[C@@H](OC(=O)[C@H](CO)c3ccccc3)C[C@H]1[C@@H]1O[C@@H]12` (stereo partly drawn) [BUTYLSCOPOLAMINE], the AC50 (on Acetylcholinesterase; on Adenosine receptor A3; in experiment [1]; on D(1A) dopamine receptor; on Prothrombin; in [2]) was greater than 30 µM in each case. For the same molecule, the AC50 is 2.8 µM in [3]; greater than 30 µM in experiment [4]; greater than 30 µM at Mu-type opioid receptor; greater than 30 µM in experiment [5]; greater than 30 µM in experiment [6]; greater than 30 µM in experiment [7]. Also, the AC50 (in experiment [8]; in [9]; on Thromboxane A2 receptor [10]; at Thromboxane A2 receptor [11]) was greater than 30 µM each time.

Turning to `NS(=O)(=O)c1cc2c(cc1Cl)NC(C1CC3C=CC1C3)NS2(=O)=O` (stereo not drawn) [CYCLOTHIAZIDE], the AC50 (at Acetylcholinesterase; on Adenosine receptor A3; in [1]; at D(1A) dopamine receptor; at Prothrombin; in experiment [2]) was greater than 30 µM each time. The AC50 (in experiment [3]; in [4]; on Mu-type opioid receptor; in experiment [5]; in experiment [6]; in [7]) was greater than 30 µM each time. Moreover, the AC50 (in experiment [8]; in [9]; on Thromboxane A2 receptor [10]; at Thromboxane A2 receptor [11]) was greater than 30 µM each time.

`COc1cc2c(cc1OC)[C@H]1C[C@@H](OC(=O)[C@@H](N)C(C)C)[C@H](CC(C)C)CN1CC2` [VALBENAZINE]: the concentration at half-maximal activity (AC50) (at Acetylcholinesterase; at Adenosine receptor A3; in experiment [1]; on D(1A) dopamine receptor; on Prothrombin; in [2]) was greater than 30 µM each time. In addition, the AC50 was greater than 30 µM in experiment [4]; 21.6 µM on Mu-type opioid receptor; greater than 30 µM in experiment [5]; 24.1 µM in experiment [6]; greater than 30 µM in experiment [7]; greater than 30 µM in [8]. The values for the AC50 (in experiment [9]; on Thromboxane A2 receptor [10]; at Thromboxane A2 receptor [11]) were greater than 30 µM, greater than 30 µM and 13.9 µM, respectively.
